Reference: ChEMBL document CHEMBL1134497, “Soluble 2-substituted aminopyrido[2,3-d]pyrimidin-7-yl ureas. Structure-activity relationships against selected tyrosine kinases and exploration of in vitro and in vivo anticancer activity” (J Med Chem, 2001)

Columns and labels:
[1] = target: Platelet-derived growth factor receptor beta (Mus musculus, UniProt P05622); assay: Ability to prevent phosphorylation of isolated mouse PDGF receptor beta
[2] = target: Fibroblast growth factor receptor 1 (Homo sapiens, UniProt P11362)
Chain of Fibroblast growth factor receptor 1 (P11362 whole entry): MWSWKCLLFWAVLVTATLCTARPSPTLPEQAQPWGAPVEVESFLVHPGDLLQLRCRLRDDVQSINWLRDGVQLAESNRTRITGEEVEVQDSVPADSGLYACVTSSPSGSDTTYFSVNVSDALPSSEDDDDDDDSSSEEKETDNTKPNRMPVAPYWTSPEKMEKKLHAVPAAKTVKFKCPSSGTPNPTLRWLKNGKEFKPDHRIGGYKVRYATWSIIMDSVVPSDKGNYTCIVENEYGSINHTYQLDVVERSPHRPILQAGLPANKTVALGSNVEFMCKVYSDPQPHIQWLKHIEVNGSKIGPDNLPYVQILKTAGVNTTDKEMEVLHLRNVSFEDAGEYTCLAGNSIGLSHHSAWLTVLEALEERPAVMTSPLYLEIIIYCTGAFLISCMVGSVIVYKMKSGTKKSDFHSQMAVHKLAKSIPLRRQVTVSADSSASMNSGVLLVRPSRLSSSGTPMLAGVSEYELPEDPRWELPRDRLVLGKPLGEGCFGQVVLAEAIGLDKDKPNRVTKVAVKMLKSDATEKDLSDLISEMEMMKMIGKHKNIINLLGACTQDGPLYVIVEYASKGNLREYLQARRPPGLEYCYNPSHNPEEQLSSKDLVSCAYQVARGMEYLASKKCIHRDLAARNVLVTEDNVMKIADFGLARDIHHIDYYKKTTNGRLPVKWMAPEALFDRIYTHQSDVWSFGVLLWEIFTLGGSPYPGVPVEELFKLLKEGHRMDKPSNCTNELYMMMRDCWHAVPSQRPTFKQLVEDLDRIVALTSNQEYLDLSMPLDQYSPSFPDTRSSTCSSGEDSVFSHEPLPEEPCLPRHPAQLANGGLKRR
Description: Ability to prevent phosphorylation of human fibroblast growth factor receptor 1

[3] = target: Proto-oncogene tyrosine-protein kinase Src (Gallus gallus, UniProt P00523); assay: Ability to prevent phosphorylation of avian c-Src TK
HCT-8 = assay: Inhibition of human colon carcinoma HCT-8 cell proliferation; assay type: functional, cell-based
NIH3T3 = assay: Inhibition of NIH3T3/PDGF Mouse transfected fibroblasts cell line; assay type: functional, cell-based
Protein kinase C (PKC) = assay: Inhibition of protein kinase C; assay type: protein assay
C6 = assay: Inhibition of C-6 rat glioma cell proliferation; assay type: functional, cell-based
SW-620 = assay: Inhibition of human colon carcinoma SW-620 cell proliferation; assay type: functional, cell-based
[4] = target: Cyclin-dependent kinase 4 (Homo sapiens, UniProt P11802); assay: Inhibition of cyclin dependent kinase 4 (CDK4)
Chain of Cyclin-dependent kinase 4 (P11802 whole entry): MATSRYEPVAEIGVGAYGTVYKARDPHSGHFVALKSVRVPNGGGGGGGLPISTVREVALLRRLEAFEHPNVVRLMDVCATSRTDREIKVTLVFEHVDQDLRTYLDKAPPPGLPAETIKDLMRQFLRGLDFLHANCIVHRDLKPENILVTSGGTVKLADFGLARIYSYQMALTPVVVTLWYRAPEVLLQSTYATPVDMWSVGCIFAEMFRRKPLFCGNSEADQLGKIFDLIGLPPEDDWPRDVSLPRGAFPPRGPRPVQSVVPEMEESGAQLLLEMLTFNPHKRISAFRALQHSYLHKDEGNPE

[5] = Inhibition of MEK1/ERK (MAP kinase kinase) in cascade assay
HT-29 = assay: Inhibition of human colon carcinoma HT-29 cell proliferation; assay type: functional, cell-based
[6] = target: Platelet-derived growth factor receptor (PDGFr) (Rattus norvegicus, UniProt P20786+Q05030); assay: Inhibition of PDGF receptor autophosphorylation in rat aortic vascular smooth muscle cells
[7] = Inhibition of MEK1/ERK (MAP Kinase kinase) in cascade assay

Chain of Platelet-derived growth factor receptor beta (P05622 whole entry): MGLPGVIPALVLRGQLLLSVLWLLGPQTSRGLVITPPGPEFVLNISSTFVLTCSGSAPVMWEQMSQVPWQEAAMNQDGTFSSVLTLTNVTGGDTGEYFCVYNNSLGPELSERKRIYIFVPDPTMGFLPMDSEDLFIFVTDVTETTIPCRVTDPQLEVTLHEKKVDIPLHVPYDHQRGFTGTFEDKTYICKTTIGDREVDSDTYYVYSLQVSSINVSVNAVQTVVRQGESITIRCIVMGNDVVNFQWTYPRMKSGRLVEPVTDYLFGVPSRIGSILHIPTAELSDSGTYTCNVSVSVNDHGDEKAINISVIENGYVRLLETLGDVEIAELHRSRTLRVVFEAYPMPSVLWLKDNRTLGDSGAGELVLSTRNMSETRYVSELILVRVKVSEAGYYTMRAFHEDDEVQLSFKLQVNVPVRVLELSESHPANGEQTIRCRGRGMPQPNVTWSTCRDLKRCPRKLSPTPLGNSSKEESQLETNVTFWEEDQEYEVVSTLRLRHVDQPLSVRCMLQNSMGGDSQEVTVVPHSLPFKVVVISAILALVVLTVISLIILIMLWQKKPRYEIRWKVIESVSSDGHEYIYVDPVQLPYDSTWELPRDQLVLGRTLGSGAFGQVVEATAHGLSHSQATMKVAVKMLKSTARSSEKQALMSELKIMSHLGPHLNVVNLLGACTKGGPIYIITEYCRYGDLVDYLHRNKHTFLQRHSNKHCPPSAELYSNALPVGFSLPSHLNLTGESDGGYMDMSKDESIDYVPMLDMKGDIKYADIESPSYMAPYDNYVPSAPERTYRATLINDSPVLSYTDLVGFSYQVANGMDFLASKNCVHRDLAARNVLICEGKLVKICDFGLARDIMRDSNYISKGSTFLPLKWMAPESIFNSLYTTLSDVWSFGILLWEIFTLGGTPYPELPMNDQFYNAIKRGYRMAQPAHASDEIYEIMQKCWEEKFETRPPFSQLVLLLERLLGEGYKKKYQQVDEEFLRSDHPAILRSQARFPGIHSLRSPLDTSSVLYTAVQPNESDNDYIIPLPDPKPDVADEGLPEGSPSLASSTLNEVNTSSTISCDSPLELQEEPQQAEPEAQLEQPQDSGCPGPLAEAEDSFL

Compound | IC50 [1] | IC50 [2] | IC50 [3] | also measured
CCN(CC)CCCNc1ncc2cc(-c3c(C)cccc3C)c(NC(=O)NC(C)(C)C)nc2n1 |  | 340 nM | 98 nM | 
CCN(CC)CCCCNc1ncc2cc(-c3c(Cl)cccc3Cl)c(NC(=O)NC3CCCCC3)nc2n1 | 0.33 µM | 43 nM | 12 nM | 
Cc1cc(C)c(C)c(-c2cc3cnc(N)nc3nc2N)c1C | > 50 µM | > 50000 nM | > 50000 nM | 
CN(C)CCCNc1ncc2cc(-c3c(Cl)cccc3Cl)c(NC(=O)NC(C)(C)C)nc2n1 |  |  | 120 nM | 
CCN(CC)CCCNc1ncc2cc(-c3c(Cl)cccc3Cl)c(NC(=O)NC(C)(C)C)nc2n1 |  |  | 73 nM | 
CC(C)NC(=Nc1nc2nc(NCCCN3CCN(C)CC3)ncc2cc1-c1c(Cl)cccc1Cl)NC(C)C |  | 2500 nM | 850 nM | 
COc1cc(OC)cc(-c2cc3cnc(N)nc3nc2NC(=O)NC(C)(C)C)c1 |  | 48 nM |  | 
CC(C)(C)NC(=O)Nc1nc2nc(N)ncc2cc1-c1c(Br)cccc1Br | 1.4 µM |  | 210 nM | 
CN1CCN(CCCNc2ncc3cc(-c4c(Cl)cccc4Cl)c(N=C(N)Nc4ccccc4)nc3n2)CC1 | 37 µM | 2800 nM | 860 nM | 
CCN(CC)CCCNc1ncc2cc(-c3c(Cl)cccc3Cl)c(N)nc2n1 |  |  | 750 nM | 
CCNC(=O)Nc1nc2nc(NCCCN(CC)CC)ncc2cc1-c1c(Cl)cccc1Cl | 1.3 µM | 130 nM | 94 nM | 
CCNC(=O)Nc1nc2nc(NCCCCN(CC)CC)ncc2cc1-c1c(Cl)cccc1Cl |  |  |  | IC50 (HCT-8): 4.02 µM; IC50 (NIH3T3): 1010 nM; IC50 (Protein kinase C (PKC)): > 50 µM; IC50 (C6): 8.8 µM; IC50 (SW-620): 2760 nM; IC50 [4]: > 40 µM; IC50 [5]: > 5 µM; IC50 (HT-29): 1170 nM; IC50 [6]: 0.24 µM
CN1CCN(CCCNc2ncc3cc(-c4c(Cl)cccc4Cl)c(NS(=O)(=O)c4ccccc4)nc3n2)CC1 | 6.9 µM | 68 nM | 22 nM | 
CN1CCN(CCCNc2ncc3cc(-c4c(Cl)cccc4Cl)c(NC(=S)Nc4ccccc4)nc3n2)CC1 | 2.2 µM | 320 nM | 22 nM | 
CCN(CC)CCCNc1ncc2cc(-c3c(Cl)cccc3Cl)c(NC(=O)CC(C)(C)C)nc2n1 | > 50 µM | 27000 nM | 19000 nM | 
CC1CCCCN1CCCNc1ncc2cc(-c3c(Cl)cccc3Cl)c(NC(=O)NC(C)(C)C)nc2n1 (stereo not given) | 0.73 µM |  | 16 nM | 
CC(C)(C)NC(=O)Nc1nc2nc(NCCCN3CCOCC3)ncc2cc1-c1c(Cl)cccc1Cl |  |  | 100 nM | 
CCN(CC)CCCCNc1ncc2cc(-c3c(Cl)cccc3Cl)c(NC(=O)NC(C)(C)C)nc2n1 |  |  | 7.4 nM | IC50 (HCT-8): 16.3 µM; IC50 [7]: 2.8 µM; IC50 (Protein kinase C (PKC)): 23 µM; IC50 (C6): 5.8 µM; IC50 (SW-620): > 25000 nM; IC50 [4]: > 40 µM; IC50 (HT-29): 900 nM
CCN(CC)CCCCNc1ncc2cc(-c3c(Cl)cccc3Cl)c(NC(=S)NCCCN3CCOCC3)nc2n1 | 1.1 µM | 130 nM | 22 nM | 
Cc1cc(C)c(C)c(-c2cc3cnc(N)nc3nc2NC(=O)NC(C)(C)C)c1C | > 50 µM |  | > 50000 nM | 

Compound | IC50 [1] | IC50 [2] | IC50 [3] | also measured
CN(C)CCCN(C)c1ncc2cc(-c3c(Cl)cccc3Cl)c(NC(=O)NC(C)(C)C)nc2n1 | 16 µM | 2000 nM | 1100 nM | 
COc1cc(OC)cc(-c2cc3cnc(N)nc3nc2N)c1 |  |  | > 50000 nM | 
CCN(CC)CCCNc1ncc2cc(-c3c(Br)cccc3Br)c(N)nc2n1 | > 50 µM | 8300 nM | 760 nM | 
CCN(CC)CCCNc1ncc2cc(-c3c(Cl)cccc3Cl)c(NC(=O)NC(C)C)nc2n1 |  |  | 78 nM | 
CCN(CC)CCCNc1ncc2cc(-c3c(Cl)cccc3Cl)c(/N=C\N(C)C)nc2n1 | > 50 µM | 10000 nM | 4000 nM | 
CCN(CC)CCCNc1ncc2cc(-c3c(C)cccc3C)c(N)nc2n1 | 25 µM | 18000 nM | 450 nM | 
CN1CCN(CCCNc2ncc3cc(-c4c(Cl)cccc4Cl)c(NC(=O)NC(C)(C)C)nc3n2)CC1 |  |  |  | IC50 (HCT-8): > 15.2 µM; IC50 (NIH3T3): 1080 nM; IC50 [7]: 7 µM; IC50 (Protein kinase C (PKC)): 22 µM; IC50 (C6): 4 µM; IC50 (SW-620): > 25000 nM; IC50 [4]: > 40 µM; IC50 (HT-29): 11100 nM
CC(C)(C)NC(=O)Nc1nc2nc(N)ncc2cc1-c1c(Cl)cccc1Cl | 1.2 µM |  | 220 nM | 
CCN(CC)CCNc1ncc2cc(-c3c(Cl)cccc3Cl)c(NC(=O)NC(C)(C)C)nc2n1 | 9 µM | 1800 nM | 4100 nM | 
Nc1ncc2cc(-c3c(Br)cccc3Br)c(N)nc2n1 |  |  | 1600 nM | 
CN1CCN(CCCNc2ncc3cc(-c4c(Cl)cccc4Cl)c(NC(=O)NC45C[C@H]6C[C@@H](C4)C[C@@H](C5)C6)nc3n2)CC1 | 2.8 µM | 120 nM | 120 nM | 
CCNC(=O)Nc1nc2nc(NCCN(CC)CC)ncc2cc1-c1c(Cl)cccc1Cl | 12 µM | 1300 nM | 2600 nM | 
CCN(CC)CCCNc1ncc2cc(-c3c(Br)cccc3Br)c(NC(=O)NC(C)(C)C)nc2n1 | 1.1 µM | 190 nM | 97 nM | 
CN1CCN(CCCNc2ncc3cc(-c4c(Cl)cccc4Cl)c(/N=C(/S)NC(C)(C)C)nc3n2)CC1 |  | 100 nM | 220 nM | 
Nc1ncc2cc(-c3c(Cl)cccc3Cl)c(N)nc2n1 | 16 µM |  | 210 nM | 
Cc1cccc(C)c1-c1cc2cnc(N)nc2nc1N | 29 µM | 13000 nM | 430 nM | 
CN(C)CC(C)(C)CNc1ncc2cc(-c3c(Cl)cccc3Cl)c(NC(=O)NC(C)(C)C)nc2n1 | 3.2 µM | 210 nM | 3500 nM | 
CC/N=C(\N)Nc1nc2nc(NCCCN(CC)CC)ncc2cc1-c1c(Cl)cccc1Cl | > 50 µM | 2700 nM | 1400 nM | 
CCNC(=S)Nc1nc2nc(NCCCN(CC)CC)ncc2cc1-c1c(Cl)cccc1Cl | 5 µM | 260 nM | 130 nM | 

The next lines start with results.

IC50 [1] | IC50 [2] | IC50 [3] | Compound | also measured
2.4 µM | 140 nM | 61 nM | CN1CCN(CCCNc2ncc3cc(-c4c(Cl)cccc4Cl)c(NC(N)=O)nc3n2)CC1 | 
0.76 µM | 35 nM | 22 nM | C=CCNC(=O)Nc1nc2nc(NCCCN3CCN(C)CC3)ncc2cc1-c1c(Cl)cccc1Cl | 
> 50 µM | 5500 nM | > 50000 nM | CCN(CC)C(=O)Nc1nc2nc(NCCCN3CCN(C)CC3)ncc2cc1-c1c(Cl)cccc1Cl | 
0.84 µM | 110 nM | 36 nM | Cc1ccc(NC(=O)Nc2nc3nc(NCCCN4CCN(C)CC4)ncc3cc2-c2c(Cl)cccc2Cl)cc1 | 
5.5 µM |  | 190 nM | CN1CCN(CCCNc2ncc3cc(-c4c(Cl)cccc4Cl)c(NC(=O)Nc4ccc(C(F)(F)F)cc4)nc3n2)CC1 | 
9.6 µM | 450 nM | 180 nM | CN1CCN(CCCNc2ncc3cc(-c4c(Cl)cccc4Cl)c(N)nc3n2)CC1 | 
 |  | 33 nM | COc1ccc(NC(=O)Nc2nc3nc(NCCCN4CCN(C)CC4)ncc3cc2-c2c(Cl)cccc2Cl)cc1 | 
5 µM | 600 nM | 92 nM | CN1CCN(CCCNc2ncc3cc(-c4c(Cl)cccc4Cl)c(NC(=O)Nc4ccc(Cl)c(Cl)c4)nc3n2)CC1 | 
> 50 µM | 3700 nM | 2700 nM | CCCC(=O)Nc1nc2nc(NCCCN3CCN(C)CC3)ncc2cc1-c1c(Cl)cccc1Cl | 
0.66 µM | 67 nM | 16 nM | COc1ccccc1NC(=O)Nc1nc2nc(NCCCN3CCN(C)CC3)ncc2cc1-c1c(Cl)cccc1Cl | 
 | 420 nM | 120 nM | CCCCCCCCNC(=O)Nc1nc2nc(NCCCN3CCN(C)CC3)ncc2cc1-c1c(Cl)cccc1Cl | 
2.4 µM | 75 nM | 20 nM | CN(C)CCNC(=O)Nc1nc2nc(NCCCN3CCN(C)CC3)ncc2cc1-c1c(Cl)cccc1Cl | 
0.28 µM |  | 10 nM | CN1CCN(CCCCNc2ncc3cc(-c4c(Cl)cccc4Cl)c(NC(=O)NC(C)(C)C)nc3n2)CC1 | 
 | 300 nM | 130 nM | CN1CCN(CCCNc2ncc3cc(-c4c(Cl)cccc4Cl)c(NC(=O)Nc4cccc5ccccc45)nc3n2)CC1 | 
1.5 µM | 110 nM | 33 nM | CN1CCN(CCCNc2ncc3cc(-c4c(Cl)cccc4Cl)c(NC(=O)Nc4ccc(Br)cc4)nc3n2)CC1 | 
0.55 µM | 34 nM | 19 nM | CC(C)NC(=O)Nc1nc2nc(NCCCN3CCN(C)CC3)ncc2cc1-c1c(Cl)cccc1Cl | 
4.2 µM | 67 nM | 150 nM | CN1CCN(CCCNc2ncc3cc(-c4c(Cl)cccc4Cl)c(NC(=O)NCCNC(=O)OC(C)(C)C)nc3n2)CC1 | 
1.8 µM | 120 nM | 40 nM | CN1CCN(CCCNc2ncc3cc(-c4c(Cl)cccc4Cl)c(NC(=O)Nc4ccc(Cl)cc4)nc3n2)CC1 | 
> 50 µM | 6800 nM | 3300 nM | CN1CCN(CCCNc2ncc3cc(-c4c(Cl)cccc4Cl)c(NC(=O)Cc4ccccc4)nc3n2)CC1 | 
> 50 µM | 8000 nM | 8400 nM | CN1CCN(CCCNc2ncc3cc(-c4c(Cl)cccc4Cl)c(NC(=O)CC(C)(C)C)nc3n2)CC1 | 
0.91 µM |  | 29 nM | COc1cccc(NC(=O)Nc2nc3nc(NCCCN4CCN(C)CC4)ncc3cc2-c2c(Cl)cccc2Cl)c1 | 
 |  | 24 nM | CCNC(=O)Nc1nc2nc(NCCCN3CCN(C)CC3)ncc2cc1-c1c(Cl)cccc1Cl | IC50 (HCT-8): 9.3 µM; IC50 (C6): 6.7 µM; IC50 (SW-620): 2500 nM; IC50 (HT-29): 900 nM
